Experimental findings from patent US8372580B2, “BRCA1 function-based cellular assays” (Morehouse School of Medicine, priority 2008, dated 2013) are described below.

For assay [1], the system named is ERα transcriptional activity in T47D breast cancer cells. Kind of assay: Cell based assay #2: ERE-luciferase reporter, E2-induced ERα activation by Ubc9 C93S. Conditions: Ubc9 C93S (SUMO-independent), E2 1 μM. The procedure: T47D cells (5×10^5) were plated in 6-well plates for 24 hours. The cells were washed twice in PBS followed by the addition of phenol red free DMEM containing 5% charcoal-stripped FBS for 48 hrs before transfection. The cells were transfected with 1 μg of each of the indicated plasmids (with a total of 2.5 μg DNA) using lipofectamine 2000 (Life Technology, USA). The cells were induced with 1 μM of E2 4 hours after transfections, harvested after an additional 40 hrs and assayed for luciferase activity following the manufacturer's instructions. Each set of experiments was performed in triplicate and repeated a least three times.
For orientation: In a reporter assay the amount or activity of a reporter protein is the signal.

The target in another assay is T1, Ubc9 (Homo sapiens, UniProt P63279).
T1 construct: made in house; host or cells: E. coli
T1 sequence (P63279 whole entry, species assumed): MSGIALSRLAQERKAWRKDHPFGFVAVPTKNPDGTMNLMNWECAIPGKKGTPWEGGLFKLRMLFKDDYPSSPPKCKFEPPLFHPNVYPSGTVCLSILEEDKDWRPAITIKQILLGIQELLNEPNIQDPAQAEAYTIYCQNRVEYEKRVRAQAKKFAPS
Kind of assay: GST capture (pull-down) assay of binding to Ubc9. Conditions: in vitro translated full length protein. From the text: GST-Ubc9 and GST-ERα (337-379) were expressed and purified from E. coli as described previously (Wang H, Shao N, Ding O M, Cui J, Reddy E S P, Rao V N: BRCA1 proteins are transported to the nucleus in the absence of serum and splice variants BRCA1a, BRCA1b are tyrosine phosphoprotein that associate with E2F, cyclins and cyclin dependent kinases. Oncogene 15, 143-157: 1997.). For in vitro protein binding assay 35 S-Methionine-labeled in vitro translated full length BRCA1, BRCA1a (Chai Y L, Cui J, Chipitsyna G, Liao B, Lui S, Aysola K et al.: C-Fos oncogene regulator Elk-1 interacts with BRCA1 splice variants BRCA 1a/1b and enhances BRCA1a/1b mediated growth suppression in breast cancer cells. Oncogene 20: 1357-1367, 2001.), BRCA1b, BRCA1 Mut#1, BRCA1 Mut#4, BRCA1 1-182, BRCA1 1-182 Mut#1 and BRCA1 1-182 Mut 4 proteins were diluted in binding buffer (20 mM Tris-HCl (pH7.5), 150 mM NaCl, 0.1% Tween 20). The proteins were precleared with GSH beads for 30 min and then incubated with GST or various GST-ER (337-379) proteins beads for 2 hours at 4° C. The beads were then washed three times with binding buffer followed by elution of the bound proteins with SDS sample buffer and loaded on a 15% SDS-PAGE. The gels were fixed, treated with enhance, dried and exposed 9 to X-ray films) and scanned using a Fuji BioImaging analyzer. […]

Regarding “BRCA1 Mutant #1: BRCA1 point mutant 1; apparently SUMO acceptor site mutation lysine (K) 109 to arginine (R)”, the “inhibition of E2-mediated ERα transcription activation by Ubc9/C93S” value (from here on “inhibition”) in assay [1] was “unlike their respective Mut #1 and Mut#4, inhibit”. Consider “BRCA1 Mutant #4: full length BRCA1 with RING domain cancer-predisposing mutation C61G”, for which the “binding to Ubc9” value with Ubc9 is reported as “did not observe any significant binding”. The “inhibition” value in assay [1] is “unlike their respective Mut #1 and Mut#4, inhibit”. In the case of “BRCA1: full-length product of the BRCA1 (breast cancer 1) tumor suppressor gene”, the “inhibition” value in assay [1] is given as “inhibit E2-mediated ERα transcription activation by Ubc9/C93S”.
